Data set [1] concerns SARS-CoV-2 Gamma, GR(P.1), hCoV-19/Korea/KDCA95637/2021. To be noted: for SI, ratio of CC50 to EC50: Gamma, Vero cells.
The subject of data set [2] is SARS-CoV-2 Beta, GH(B.1.351), hCoV-19/Korea/KDCA55905/2021. To be noted: Vero cells.
For data set [3], the system named is SARS-CoV-2 Omicron, GRA(B.1.1.529), hCoV-19/Korea/KDCA447321/2021. To be noted: Vero cells.
The subject of data set [4] is SARS-CoV-2 Alpha, GR(B.1.1.7), hCoV-19/Korea/KDCA51463/2021. The data set can be described thus: microbe, parasite or virus in culture. To be noted: Severe acute respiratory syndrome coronavirus 2, Vero.
In data set [5] the test system is SARS-CoV-2 Delta, G(B.1.617.2), hCoV-19/Korea/KDCA119861/2021. Description: microbe, parasite or virus in culture. To be noted: Severe acute respiratory syndrome coronavirus 2, Vero.
Data set [6] shares this test system. The following applies: Vero cells.
Data set [7] has as its system SARS-CoV-2 Gamma, GR(P.1), hCoV-19/Korea/KDCA95637/2021. Description: microbe, parasite or virus in culture. The following applies: Severe acute respiratory syndrome coronavirus 2, Vero.
The subject of data set [8] is SARS-CoV-2 Omicron, GRA(B.1.1.529), hCoV-19/Korea/KDCA447321/2021. The data set can be described thus: microbe, parasite or virus in culture. The following applies: Severe acute respiratory syndrome coronavirus 2, Vero.
Data set [9] deals with SARS-CoV-2 Beta, GH(B.1.351), hCoV-19/Korea/KDCA55905/2021. The data set can be described thus: microbe, parasite or virus in culture. To be noted: Severe acute respiratory syndrome coronavirus 2, Vero.
Data set [10] has as its system SARS-CoV-2 Alpha, GR(B.1.1.7), hCoV-19/Korea/KDCA51463/2021. To be noted: Vero cells.

What is called EC50 is the concentration needed to bring the measured effect to its halfway point. A high value points to lower potency in that assay. In the case of `CCC(CC)COC(=O)[C@H](C)N[P@](=O)(OC[C@H]1O[C@@](C#N)(c2ccc3c(N)ncnn23)[C@H](O)[C@@H]1O)Oc1ccccc1` [RDV, remdesivir], the “SI, ratio of CC50 to EC50” value was above 10.3 in data set [1], above 8.2 in [2], above 60.7 in data set [3] and above 23.6 in data set [6]. The concentration for a half-maximal effect (EC50) in [4] was 7 ± 1 µM; in data set [5], 4.2 µM; in data set [7], 9.7 ± 0.7 µM; in data set [8], 1.6 ± 0.5 µM; in data set [9] it was 12.2 ± 0.4 µM.

For `CCOC(=O)C1(c2ccccc2)CCN(CCC(C#N)(c2ccccc2)c2ccccc2)CC1` [Diphenoxylate, diphenoxylate], the “potency relative to remdesivir (times more potent)” value in data set [1] is recorded as “up to 6.5 times”. The “SI, ratio of CC50 to EC50” value is on record as above 68.0 in [1]; above 20.4 in data set [2]; above 31.3 in data set [3]; above 36.2 in data set [6]; above 52.5 in data set [10]. Also, the EC50 in data set [4] was 1.9 ± 0.2 µM; in [5], 2.8 ± 0.6 µM; in [7], 1.5 ± 0.1 µM; in data set [8], 3.2 ± 0.6 µM; in data set [9] it was 4.9 ± 0.3 µM.

Source of the values: paper PMC11620506, “Inhibition of endocytic uptake of severe acute respiratory syndrome coronavirus 2 and endo-lysosomal acidification by diphenoxylate” (Antimicrobial Agents and Chemotherapy, 2024).
